# Test results taken from patent EP4311830A1 (King Faisal Specialist Hospital & Research Centre, priority 2022, dated 2024).
# Experiments:
# Type in all cases: cell-based
# OV-2774 = assay: Cytotoxicity assay (WST1); conditions: Ovarian, OV-2774, WST1
# Experimental: (§1) 5,000 cells/well were seeded in 96-well plates with appropriate culture media. After cells treatment, WST-1 reagent (Sigma-Aldrich) was added to each well according to the manufacturer's instructions. These experiments were performed in triplicates and were repeated several times.
# CSC (MDA-MB-231) = assay: WST1 cytotoxicity on pre-formed tumorspheres (cancer stem cells); conditions: cisplatin 50 µM for 24 h, MDA-MB-231 tumorspheres
# Experimental: (§2) It is well known that cancer stem cells are the most resistant type of cells, which are responsible for recurrence and metastasis (Garcia-Mayea et al., 2020). Therefore, we decided to investigate the effect of eugenoplatin on the self-renewal ability and sternness capacity of cancer cells. To this end, cancer cells were first either sham-treated (DMSO) or challenged with eugenoplatin (3 µM) for 24 h, and then were incubated in 96 well ultra-low attachment plates in the presence of stem cells culture medium. After 10 days, the formed spheroids with a dimeter ≥ 100 µm were counted (Fig. 6A).
# as §1
# (§3) Cells were seeded in 96 well ultra-low attachment plate at a density of 1000 viable cells/well. Cells were cultured in 171 medium supplemented with 1% ABM, 2% B-27, 20 ng/mL EGF, 500 ng/ml HC, 4% FBS and 5 µg/ml insulin. Cells were incubated for 10 days at 37°C under 5% CO2. Mammospheres with a diameter of ≥100 µm were counted using OPTIKA light microscope.
# CSC (MG-64) = assay: as above; conditions: cisplatin 50 µM for 24 h, MG-64 tumorspheres
# Experimental: as §2, §1, §3
# Cal62 = assay: Cytotoxicity assay (WST1); conditions: Thyroid
# Experimental: as §1
# H-1937 = assay: Cytotoxicity assay (WST1); conditions: Lung, H-1937, WST1
# Experimental: as §1
# A1235 = assay: Cytotoxicity assay (WST1); conditions: Glioblastoma
# Experimental: as §1
# MG-64 = assay: Cytotoxicity assay (WST1); conditions: Osteosarcoma, MG-64, WST1
# Experimental: as §1
# [1] = tested on: human fibroblast cells (HFSN1); assay: γ-H2AX immunofluorescence (DNA damage); conditions: cisplatin 50 µM for 24 h
# Experimental: Since cisplatin is a DNA damaging chemotherapeutic drug, we investigated whether eugenoplatin can also promote DNA damage in cells. […] To confirm this, we assessed the level of the phosphorylated form of p53 (P.p53) in eugenoplatin-treated cells. […] This was accompanied by a late increase in the level of the p53 target p21 (Fig. 7B).
# HFSN1 cells were fixed in formaldehyde (4%) for 19 minutes and blocked with Goat serum (5%), triton X (0.3%) and 1% sodium azide (5%) for 1 hour. The slides were then stained overnight at 4 °C with γ-H2AX antibody (pSer139) (Novusibio) that diluted in BSA (1%), triton X (0.3%) and 1 % sodium azide (5%), and subsequently incubated with alexa flour 594-conjugated goat anti-rabbit IgG and DAPI for 1 hour. Images were acquired using fluorescence microscope (Zeiss).
# HCT-116 = assay: Cytotoxicity assay (WST1); conditions: Colon, HCT-116, WST1
# Experimental: as §1
smiles,measurement,setting,value
N.N.O=C([O-])C1(C(=O)[O-])CCC1.[Pt+2] [Carboplatin],IC50,OV-2774,53.3 ± 0.67 µM
"N.N.[Cl][Pt][Cl] [Cisplatin, (SP-4-2)-diamminedichloridoplatinum(II)]",proportion of survival CSC,CSC (MDA-MB-231),not affected
same,proportion of survival CSC,CSC (MG-64),not affected
same,IC50,Cal62,25.7 ± 2.19 µM
same,IC50,H-1937,67.8 ± 7.75 µM
same,IC50,A1235,55.8 ± 18.2 µM
same,IC50,MG-64,26 ± 4 µM
same,γ-H2AX immunostaining,[1],strong nuclear staining
O=C(O)C(=O)O.[NH-][C@@H]1CCCC[C@H]1[NH-].[Pt+2] [Oxaliplatin],IC50,HCT-116,3.17 ± 0.52 µM
